Experimental data from ChEMBL document CHEMBL4177567, “Antibiotic adjuvants - A strategy to unlock bacterial resistance to antibiotics” (Bioorg Med Chem Lett, 2017).
Values after ≈ are worked out from the molar mass of the structure shown.

Legend:
[1] = target: T1, Beta-lactamase 1 (Bacillus cereus, UniProt P00809); assay: Inhibition of Bacillus cereus beta-lactamase […] using CENTA as substrate up to 30 mins by Lineweaver-Burk plot analysis
T1 sequence (P00809 whole entry): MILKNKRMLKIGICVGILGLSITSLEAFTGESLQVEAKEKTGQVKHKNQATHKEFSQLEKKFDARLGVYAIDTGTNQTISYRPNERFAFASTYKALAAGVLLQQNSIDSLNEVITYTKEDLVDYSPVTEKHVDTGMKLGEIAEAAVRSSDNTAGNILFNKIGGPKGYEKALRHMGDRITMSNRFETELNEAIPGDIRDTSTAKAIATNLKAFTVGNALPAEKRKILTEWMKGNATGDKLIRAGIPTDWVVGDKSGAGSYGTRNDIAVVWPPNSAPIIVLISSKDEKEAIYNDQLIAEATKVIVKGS

[2] = tested on: Acinetobacter baumannii; assay: Antibacterial activity against Acinetobacter baumannii after 20 to 22 hrs by broth microdilution method; format: functional

Row | Compound | Ki [1] [nM] | MIC [2] [µg/mL]
1 | O=C(NCB(O)O)S(=O)(=O)c1cc(-c2nnn[nH]2)cc(C(F)(F)F)c1 | 0.05 | –
2 | C[C@]1(COC(=O)Cc2ccc(O)c(O)c2)[C@H](C(=O)O)N2C(=O)/C(=C/c3ccccn3)[C@H]2S1(=O)=O | – | 2 (≈ 4.09 µM)
3 | O=C(O)c1cccc(CS(=O)(=O)C(=O)NCB(O)O)c1 | 1.3 | –
4 | O=C(NCB(O)O)S(=O)(=O)c1cc(Cl)cc(-c2nnn[nH]2)c1 | 0.2 | –
5 | O=C(NCB(O)O)S(=O)(=O)c1ccnc(-c2nnn[nH]2)c1 | 0.8 | –
